The record followed here is ChEMBL document CHEMBL1909553, “Design, synthesis and biological evaluation of substituted 11H-benzo[a]carbazole-5-carboxamides as novel antitumor agents” (Eur J Med Chem, 2011).

The source made the active and inactive calls. The calls are words filed in the database; no cut-off is given here.

Data set [1] deals with HCT-116. The data set can be described thus: Growth inhibition of human HCT116 cells measured after 72 hrs by SRB assay. Format: functional, cell-based. The settings on record: HCT-116, 72 h. Background: Sulforhodamine B stains cellular protein and so reports cell mass.
A further data set has as its system Nucleic Acid. The data set can be described thus: Binding affinity to linearized Escherichia coli pBR322 DNA assessed as inhibition of T4-DNA ligase-mediated circularization at 100 uM after 30 mins by agarose gel electrophoresis. The format is nucleic-acid assay.
For the next data set, the system named is A549. The experiment in a line: Growth inhibition of human A549 cells measured after 72 hrs by SRB assay. Format: functional, cell-based. The settings on record: A549, 72 h.
The test system of data set [2] is HL-60. The experiment in a line: Cell cycle arrest in human HL60 cells assessed as accumulation at G2/M phase at 2 uM after 24 hrs by propidium iodide staining-based flow cytometric analysis relative to control. Format: functional. (In flow cytometry, cells or beads pass a laser one at a time.)
The subject of data set [3] is HCT-116. The data set can be described thus: Antitumor activity against human HCT116 cells transplanted in nude mouse assessed as tumor volume at 15 mg/kg, iv administered three times per week for three weeks relative to control. The format is functional.
The next data set concerns Mus musculus. The data set can be described thus: Toxicity in nude mouse xenografted with human HCT116 cells assessed as body weight change at 15 mg/kg, iv administered three times a week for 3 weeks (reference value: 19.4 g). Format: organism-based, HCT-116. Details: dose 15 mg/kg, route intravenous. Conditions: in vivo, 504 h. On the technique in general: Xenograft models place foreign cells or tissue in a host animal.

Data set [4] concerns HCT-116. The data set can be described thus: Antitumor activity against human HCT116 cells transplanted in nude mouse assessed as decrease in tumor volume at 15 mg/kg, iv administered three times per week for three weeks measured on day 21 (reference value: 1245 +/- 192 mm'3). The format is functional.
Data set [5] deals with HL-60. The experiment in a line: Cell cycle arrest in human HL60 cells assessed as accumulation at G2/M phase at 8 uM after 24 hrs by propidium iodide staining-based flow cytometric analysis relative to control. Format: functional.

By IC50 is commonly meant the midpoint of a concentration-inhibition curve. Read a high IC50 as lower potency. As to `CN(C)CCN1C(=O)c2cccc3c2c(cc2c4ccccc4sc32)C1=O`, the concentration for half-maximal inhibition (IC50) is 2.2 µM with HCT-116 [1] and 0.4 µM with A549. The inhibition entry with Nucleic Acid was “Active”. Besides, the Activity with HL-60 [2] is recorded as 52.48%.
Regarding `O=C(NCCN1CCNCC1)c1cc2c3ccccc3[nH]c2c2cc(Br)ccc12`, the IC50 turned out to be 70.3 µM in the data set with HCT-116 [1] and 68.4 µM in the data set with A549.
By T/C is commonly meant the ratio of treated to control. Consider `CN(C)CCN1C(=O)c2cccc3cc(N)cc(c23)C1=O.O=C(O)CC(O)(CC(=O)O)C(=O)O` [AMONAFIDE CITRATE], for which, in the data set on HCT-116 [3], the T/C stood at 52.74%. Also, the Activity was found to be 14.6 g in the data set with Mus musculus and 664 mm3 in the data set on HCT-116 [4].
Consider `O=C(NCCN1CCCC1)c1cc2c3ccccc3[nH]c2c2cc(Br)ccc12`, for which the IC50 came to 11 µM with HCT-116 [1] and 10.6 µM in the data set on A549.
Regarding `CN(C)CCNC(=O)c1cc2c3ccccc3[nH]c2c2cc(Br)ccc12`, the figures for the IC50 with HCT-116 [1] and in the data set with A549 were 8.8 µM and 12.1 µM, respectively. For the same molecule, the Activity with HL-60 [5] stood at 48.13%. Further, the inhibition entry in the data set on Nucleic Acid was “Active”.
For the molecule `O=C(NCCN1CCOCC1)c1cc2c3ccccc3[nH]c2c2cc(Br)ccc12`, the figures for the IC50 in the data set with HCT-116 [1] and with A549 were 64.9 µM and 9.4 µM, respectively.
Take `CNCCNC(=O)c1cc2c3ccccc3[nH]c2c2cc(Br)ccc12`: the IC50 with HCT-116 [1] turned out to be 16.2 µM; in the data set with A549, 17.5 µM.
As to `O=C(NCCNCCO)c1cc2c3ccccc3[nH]c2c2cc(Br)ccc12`, the IC50 worked out at 17.5 µM in the data set with HCT-116 [1] and 25.6 µM with A549.
As to `CN(C)CCCNC(=O)c1cc2c3ccccc3[nH]c2c2cc(Br)ccc12` [listing 1 of 2 here], the values for the IC50 with HCT-116 [1] and in the data set on A549 were 9.5 µM and 8.2 µM, respectively. In the data set with HL-60 [2], the Activity was 61.3%.
As to `O=C(NCCN1CCCCC1)c1cc2c3ccccc3[nH]c2c2cc(Br)ccc12`, the figures for the IC50 in the data set with HCT-116 [1] and with A549 were 17 µM and 19.5 µM, respectively.
For the molecule `CN(C)CCNC(=O)c1cc2c3ccccc3[nH]c2c2cc(N)ccc12`, the IC50 in the data set with HCT-116 [1] was determined as 36.2 µM; in the data set with A549, 38.4 µM.
Taken in the same sequence, the figures for `CN(C)CCNC(=O)c1cc2c3ccccc3[nH]c2c2cc(N(C)C)ccc12` were 20.1 µM and 23.1 µM.
In the case of `CN(C)CCCNC(=O)c1cc2c3ccccc3[nH]c2c2cc(Br)ccc12` [listing 2 of 2 here], the inhibition entry with Nucleic Acid was “Active”.
With `O=C(NCCO)c1cc2c3ccccc3[nH]c2c2cc(Br)ccc12`, the IC50 in the data set with HCT-116 [1] and in the data set on A549 was more than 100 µM each time.
As for `CN(C)CCNC(=O)c1cc2c3ccccc3[nH]c2c2ccccc12`, the IC50 in the data set on HCT-116 [1] and with A549 was 23.8 µM each time.
Consider `CN(C)CCCNC(=O)c1cc2c3ccccc3[nH]c2c2cc(Br)ccc12.O=C(O)CC(O)(CC(=O)O)C(=O)O`, for which, in the data set on HCT-116 [3], the T/C was 58.97%. In addition, the Activity with Mus musculus was 16.3 g; in the data set with HCT-116 [4], 676 mm3.
`CN(C)CCN1C(=O)c2cccc3cc(N)cc(c23)C1=O` [AMONAFIDE]: the values for the IC50 with HCT-116 [1] and with A549 were 15.3 µM and 8.1 µM, respectively.
